Target: Induced myeloid leukemia cell differentiation protein Mcl-1 (Homo sapiens) (UniProt Q07820)
Test: Mcl-1/Noxa binding inhibitor potency, dose response, biochemical, TR-FRET (AID 1417)
Conditions: Mcl-1/Noxa peptide interaction, cell-free TR-FRET (terbium/rhodamine), 2 h; measured here: absolute IC50

Induced myeloid leukemia cell differentiation protein Mcl-1 (Homo sapiens), sequence (Q07820 whole entry, looked up): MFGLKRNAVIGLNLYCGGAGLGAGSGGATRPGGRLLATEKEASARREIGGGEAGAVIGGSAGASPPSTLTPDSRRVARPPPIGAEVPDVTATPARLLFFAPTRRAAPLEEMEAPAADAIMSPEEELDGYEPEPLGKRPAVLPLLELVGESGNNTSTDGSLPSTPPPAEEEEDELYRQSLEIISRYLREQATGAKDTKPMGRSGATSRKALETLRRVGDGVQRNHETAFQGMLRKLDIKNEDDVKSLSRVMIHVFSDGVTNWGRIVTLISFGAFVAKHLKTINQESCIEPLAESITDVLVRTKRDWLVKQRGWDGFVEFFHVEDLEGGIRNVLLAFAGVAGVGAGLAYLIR

Compound | IC50 [µM]
Cc1c(Cl)cnc(NC(=O)COC(=O)c2ccc([N+](=O)[O-])s2)c1Cl | 7.01
Cc1cc(-c2nc3c4c5c(sc4[nH]c(=O)n3n2)CCC5)c(C)o1 | < 0.4
O=c1oc2c(O)c(O)cc3c(=O)oc4c(O)c(O)cc1c4c23 | < 0.4
C(=C\c1ccco1)/c1ccc2ccccc2n1 | 4.18
O=c1cc(-c2ccc(O)c(-c3c(O)cc(O)c4c(=O)cc(-c5ccc(O)cc5)oc34)c2)oc2cc(O)cc(O)c12 | 1.78
Cn1c(N)c(C(=O)COC(=O)c2cc(-c3ccco3)nc3ccccc23)c(=O)n(Cc2ccccc2)c1=O | < 0.4
CCc1cc(C(=O)N=Nc2c(O)[nH]c3ccc([N+](=O)[O-])cc23)c2ccccc2n1 | 5.99
COc1ccc(-c2csc(/C(C#N)=C\c3ccc(O)c([N+](=O)[O-])c3)n2)cc1OC | 4.75
O=C1NN(c2ccc(Cl)cc2)C(=O)/C1=C\c1ccc(-c2cccc(C(=O)O)c2)o1 | 0.894
CC(/C=C/c1ccco1)=N/NC(=O)Cc1cccs1 | 4.32
CCN1C(=O)/C(=C2/Sc3ccc(OC)cc3N2C)SC1=Nc1cccc(O)c1 | > 54
CC(C)(O)C#Cc1ccc(CN2CCN(C3CCCCC3)C(CCO)C2)cc1 (configuration not stated) | > 54
CC(=O)c1ccc2c(c1)C1C=CCC1C(C(=O)O)N2 (configuration not stated) | < 0.4
O=C(N/N=C/c1ccc(O)c(O)c1O)/C(=C/c1ccc([N+](=O)[O-])cc1)NC(=O)c1ccccc1 | < 0.4
Fc1cc(F)c2nc(Nc3nc4cc5c(cc4s3)OCO5)sc2c1 | < 0.4
Cc1cc2nc(-c3ccc(SCc4ccc(C(=O)O)cc4)nc3)[nH]c2cc1C | < 0.4
Cc1ccc(CNC(=O)c2ccc(-n3cccc3)cc2)cc1 | 2.26
COC(=O)c1ccc(CSc2nc(-c3ccccc3)cs2)o1 | > 54
O=C(CSc1ccsc1[N+](=O)[O-])Nc1cc(F)ccc1F | > 54
N=C1/C(=C/c2ccc(-c3cccc(C(=O)O)c3)o2)C(=O)N=C2SC=C(c3ccccc3)N12 | < 0.4
COC(=O)c1ccc2nc(Nc3nc4ccc(F)cc4s3)sc2c1 | 1.75
O=[N+]([O-])c1cccc(S(=O)(=O)Nc2nc3ccccc3nc2Nc2cccc(S(=O)(=O)N3CCCCC3)c2)c1 | 3.75

Compound | IC50 [µM]
O=[N+]([O-])c1ccc(N/N=C/c2ccc(O)c(O)c2O)c(S(=O)(=O)N2CCOCC2)c1 | < 0.4
COc1cccc2c(=S)c(CCC(C)=O)c(C)[nH]c12 | 0.718
CN(C)c1ccc(NC(=O)c2cccc(N3C(=O)C4C5C=CC(C5)C4C3=O)c2)cc1 (configuration not stated) | > 54
CN1CCc2cccc3c2[C@@H]1Cc1ccc(O)c(O)c1-3 | 0.827
CCN(CC)C(=O)CC(c1cc(OC)c(OC)c(OC)c1)c1c(OC)cc(OC)c2c(-c3ccccc3)cc(=O)oc12 (configuration not stated) | 4.05
COc1ccc(-n2cccc2/C=C2\C(=N)N3N=C(c4ccco4)SC3=NC2=O)cc1 | < 0.4
Oc1ccc(-c2csc(Nc3ncccn3)n2)cc1O | < 0.4
CNc1ccc(Br)cc(C(=O)/C=C/c2cccc(Cl)c2Cl)c1=O | 0.439
C=CCOC(=O)C1=C(C)N=c2s/c(=C3\C(=O)N(CC(=O)O)c4ccccc43)c(=O)n2C1c1ccc(OC)cc1 (configuration not stated) | 3.48
O=C1N=c2ccccc2=C1c1sc(Nc2ccc(O)cc2)nc1O | 1.2
COc1ccccc1C1C2=C(N=c3s/c(=C/c4cccc(OCC(=O)O)c4)c(=O)n31)c1ccccc1CC2 (configuration not stated) | 2.15
CCC(C)N1C(=O)/C(=C/c2ccc3c(c2)CCN3CCCCl)C(=O)NC1=S (configuration not stated) | 1.92
CCOC(=O)c1cc(C(O)(C(=O)OC)C(F)(F)F)c(/N=C/N(C)C)o1 (configuration not stated) | > 54
CCNc1ccc(Br)cc(C(=O)/C=C/c2ccc(Cl)cc2Cl)c1=O | 4.19
Cc1ccc(N2C(=O)NC(=O)/C(=C\c3cnc(-c4ccccc4)nc3)C2=O)cc1 | 20.2
CCCSC1=N/C(=C\C=C\c2ccco2)C(=O)S1 | 3.1
COc1ccc(-c2cnnc(N/N=C/c3ccc(O)cc3)n2)cc1 | 8.41
Cc1ccc(-n2nc(C)cc2NC(=O)COc2cc(C)cc3oc(=O)c4c(c23)CCC4)cc1 | > 54
CN1C(=O)/C(=C/c2ccc(-c3ccccc3[N+](=O)[O-])o2)SC1=Nc1ccc(Cl)c(C(=O)O)c1 | < 0.4
Cc1cccc(N=C2NC(=O)/C(=C/C=C/c3ccco3)S2)c1 | 13.5
Cc1[nH]n(-c2ncc(-c3ccccc3)s2)c(=O)c1C(c1ccc(Cl)cc1)C(C#N)C#N (configuration not stated) | 12.2
O=C(NCCc1ccccc1)c1ccc2nc(-c3ccco3)c(-c3ccco3)nc2c1 | 2

Compound | IC50 [µM]
O=C(N/N=C/c1ccc(O)cc1)c1cccc(N/N=C/c2ccc(O)cc2)c1 | 2.05
CN(C)c1ccc(Sc2nnc(NC(=O)Nc3ccc(Cl)cc3Cl)s2)cc1 | 3.46
CC1=C(SCCC#N)S/C(=C2\SC(C)=C(SCCC#N)S2)S1 | 2.71
Clc1cccc(/C=N/Nc2nc(Cl)nc3ccccc23)c1 | > 54
O=C(COc1ccc2ccccc2c1)NNC(=O)c1ccc([N+](=O)[O-])cc1 | 8.48
O=C(NCCCO)c1ccc2nc(-c3ccco3)c(-c3ccco3)nc2c1 | > 54
COc1ccc(-c2csc(NC(=O)CSc3nc(C)nc4sc(C(=O)O)c(C)c34)n2)cc1 | 8.23
CCn1c(C)cc(/C=C2\NC(=O)N(Cc3ccc(Cl)cc3)C2=O)c1C | 7.52
CCC(=O)N(CC)C1=C(O)c2ccccc2C(=O)C1=O | 0.997
COc1ccc(C(=O)N=c2c(C#N)cc3c(=O)n4cccc(C)c4nc3n2Cc2ccco2)cc1 | 13.8
COc1ccc(C(=O)Nc2nc3c(s2)Cc2cc(OC)ccc2-3)cc1 | 4.11
CC1=NNC(=O)C1CC(=O)N/N=C(\C)c1ccco1 (configuration not stated) | > 54
CCN(CC)c1ccc(NC(=O)CCCOc2cccc(C)c2)cc1 | > 54
Cc1ccc(O)c(NC2=C(Cl)C(=O)N(Cc3ccccc3)C2=O)c1 | > 54
O=C(NCc1ccccc1)c1ccc2nc(-c3ccco3)c(-c3ccco3)nc2c1 | 2.3
O=C(NCc1ccccn1)c1ccc2nc(-c3ccco3)c(-c3ccco3)nc2c1 | 1.38
COc1ccc(-n2c(N)c(-c3nc4ccccc4n3C)sc2=S)cc1 | > 54
C/C(=C\c1ccco1)C1Nc2cccc3cccc(c23)N1 | 3.68
CCC1(C(=O)OC)CCc2c(cc(OC)c3ccccc23)C1=O (configuration not stated) | 48.1
O=C1C(Cl)=C(N2CCCCC2)C(=O)C(Cl)=C1c1cnc(N2CCCCC2)s1 | < 0.4
CC(=O)Nc1sc(N/N=C\c2ccco2)nc1-c1cccs1 | 10.6
COc1cc(/C=C2\SC(=O)N(c3ccc(Cl)cc3)C2=O)cc([N+](=O)[O-])c1O | < 0.4

Compound | IC50 [µM]
Cc1cc(N=Cc2c(O)ccc3cc(Br)ccc23)no1 | 53.5
COC(=O)Nc1ccc(S(=O)(=O)NCc2ccccn2)cc1 | > 54
CCOC(=O)c1c(NC(C)=O)sc2c(O)c(Br)cc(Br)c12 | 8.58
CCOc1ccc(NC(=O)N(CCN2CCOCC2)Cc2ccc3c(c2)CCCN3CC)cc1 | 0.953
Cc1ccc(-n2nc3cc(C)c(N)cc3n2)cc1 | < 0.4
O=C1NC(=S)N/C1=C/c1cccn1-c1ccc([N+](=O)[O-])cc1 | > 54
Cc1cc(C(F)F)n2nc(C(=O)Nc3sc4c(c3C(N)=O)CCC4)nc2n1 | 11.4
CC(C)Nc1nnc(SCC(=O)Nc2ccc3c(c2)C(=O)c2ccccc2C3=O)s1 | 2.01
COc1ccc(C(=O)C[n+]2ccc(-c3nnc4n3CCCCC4)cc2)cc1 | 23.1
O=C(O)CCCCCN1C(=O)/C(=C\c2cn(-c3ccccc3)nc2-c2cccs2)SC1=S | 2.5
CCOC(=O)c1ccc2c(c1)C1C=CCC1C(C(=O)O)N2 (configuration not stated) | < 0.4
Cc1c(Cc2ccccc2)c(=O)oc2c(O)c(O)ccc12 | 33.9
COC(=O)c1cc(O)cc(OC)c1Oc1cc(C)cc(O)c1C(=O)O | > 54
CCc1nc(Nc2ccc(N3CCN(C(C)=O)CC3)cc2)c2oc3ccccc3c2n1 | > 54
COc1ccc(/C=C2/SC(=S)N(c3ccc(S(=O)(=O)Nc4nccs4)cc3)C2=O)cc1 | 0.999
CC1=C(C#N)C(=O)NC(=O)/C1=C\c1ccc(-c2cc(C)c(C)cc2[N+](=O)[O-])o1 | < 0.4
Nc1cc2nc[nH]c2cc1N | 52.8
COc1ccc(NC(=O)Cn2ncc(Cl)c(Cl)c2=O)cc1S(=O)(=O)N1CCOCC1 | 4.88
COc1ccc(/C=C2\C(=O)NC(=S)N2C(=O)c2ccc(C)cc2)cc1 | > 54
O=C1NC(=O)C(=Cc2ccc(-c3cc(Cl)ccc3[N+](=O)[O-])o2)C(=O)N1 | 3.25
N=c1oc2cc(O)ccc2cc1C(=O)Nc1nc2ccccc2s1 | 2.93
COc1cccc(C(=O)Nc2ccc3nc(N4CCN(c5ncccn5)CC4)cc(C)c3c2)c1OC | 8.07

Compound | IC50 [µM]
Cc1ccc(C)c(S(=O)(=O)Nc2cc(SCC(=O)O)c(O)c3ccccc23)c1 | < 0.4
CCCC1=NN2C(=N)/C(=C\c3ccc(SCc4ccco4)o3)C(=O)N=C2S1 | < 0.4
CNc1sc(C(=O)c2ccccc2F)c(N)c1-c1nc2ccccc2s1 | 5.67
CC1=C(C(=O)OCC(C)C)C(c2ccsc2)NC(=O)N1 (configuration not stated) | > 54
Cc1cc(N/N=C/c2ccc(O)c(C)c2O)nc(-c2ccccc2O)n1 | 3.66
O=C(ONc1ccc(N=NC(=O)c2ccccc2O)cc1)c1ccccc1 | 13
O=C1c2ccc([N+](=O)[O-])cc2NC(c2ccco2)N1/N=C/c1ccco1 (configuration not stated) | > 54
COc1ccc2nc(NC(=O)Nc3cccc4ccccc34)sc2c1 | > 54
O=C1NC(=S)S/C1=C\c1ccc(SCc2ccco2)o1 | < 0.4
CCC1=NNc2cccc3c(OC)ccc1c23 | > 54
CSc1nnc(-c2ccco2)c(-c2ccco2)n1 | 13.2
O=C(O)c1ccc(NC2=C/C(=N/S(=O)(=O)c3ccccc3)c3ccccc3C2=O)cc1 | < 0.4
Cc1ccccc1C(=O)Nc1nc(-c2cccnc2)cs1 | < 0.4
CCCCn1c(NCc2ccc(N(C)C)cc2)nc2ccccc21 | 1.14
O=C(Nc1cccc(S(=O)(=O)NC2=NCCC2)c1)c1cc(-c2ccco2)nc2ccccc12 | < 0.4
COc1ccc(C(=O)c2sc3nc(-c4ccccc4)ccc3c2N)cc1OC | > 54
N#Cc1c(NC(=O)c2cccc(S(=O)(=O)Nc3ccc(C(=O)O)cc3)c2)sc2c1CCCC2 | 9.51
NC(=O)C1CCN(C2=C(Cl)C(=O)c3ccccc3C2=O)CC1 | 48.2
Cn1c(=O)c(C(=O)COC(=O)c2cc(-c3ccco3)nc3ccccc23)c(N)n(CC2CC2)c1=O | 0.449
